Data as given in patent US20100298141A1, “SUBSTITUTED PYRIDINE N-OXIDE HERBICIDES” (E. I. DU PONT DE NEMOURS AND COMPANY, priority 2007, published 2010).

What was measured:
blackgrass = test: Test C pre-/postemergence test; format: in vivo, Alopecurus myosuroides
In short: (§1)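 Seeds were planted and treated preemergence with test chemical in a non-phytotoxic solvent mixture containing surfactant. Postemergence applications of the same formulation went onto plants 2 to 18 cm tall (1- to 4-leaf stage). A dash marks no test result.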

velvetleaf [1] = test: Test C pre-/postemergence test; format: in vivo, Abutilon theophrasti
In short: as §1

green foxtail = test: Test C pre-/postemergence test; format: in vivo, Setaria viridis
In short: as §1

pigweed = test: Test C pre-/postemergence test; format: in vivo, Amaranthus retroflexus
In short: as §1

barnyardgrass [2] = test: Test A pre-/postemergence greenhouse test; format: in vivo, Echinochloa crus-galli; settings: for Plant response rating, Barnyardgrass: 0 to 100 scale where 0 is no effect and 100 is complete control; for Barnyardgrass plant response rating: 0 to 100 scale
In short: (§2)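 Untreated controls served as the reference for visual injury ratings taken about ten days after spraying. The non-phytotoxic solvent/surfactant formulation was applied preemergence to seeded loam and sand and postemergence to plants two to ten cm high.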

crabgrass = test: Test A pre-/postemergence greenhouse test; format: in vivo, Digitaria sanguinalis; settings: for Plant response rating, Crabgrass, Large: 0 to 100 scale where 0 is no effect and 100 is complete control; for Crabgrass, Large plant response rating: 0 to 100 scale
In short: as §2

downy brome = test: Test C pre-/postemergence test; format: in vivo, Bromus tectorum
In short: as §1

catchweed bedstraw = test: Test C pre-/postemergence test; format: in vivo, Galium aparine
In short: as §1

duck salad = test: Test C flooded paddy test; format: in vivo, Heteranthera limosa; settings: Flood
In short: (§3)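 Under a constant 3 cm flood, test compounds went directly into the paddy water. Following 13 to 15 days of greenhouse growth, treated species and controls were compared by eye.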

velvetleaf [3] = test: Test A pre-/postemergence greenhouse test; format: in vivo, Abutilon theophrasti; settings: for Velvetleaf plant response rating: 0 to 100 scale
In short: as §2

woolly cupgrass = test: Test C pre-/postemergence test; format: in vivo, Eriochloa villosa
In short: as §1

Surinam grass = test: Test C pre-/postemergence test; format: in vivo, Brachiaria decumbens
In short: as §1

lambsquarters = test: Test C pre-/postemergence test; format: in vivo, Chenopodium album
In short: as §1

barnyardgrass [4] = test: Test C flooded paddy test; format: in vivo, Echinochloa crus-galli; settings: Flood
In short: as §3

common ragweed = test: Test C pre-/postemergence test; format: in vivo, Ambrosia elation
In short: as §1

soybean = test: Test C pre-/postemergence test; format: in vivo, Glycine max
In short: as §1

giant foxtail = test: Test A pre-/postemergence greenhouse test; format: in vivo, Setaria faberi; settings: for Plant response rating, Foxtail, Giant: 0 to 100 scale where 0 is no effect and 100 is complete control; for Foxtail, Giant plant response rating: 0 to 100 scale
In short: as §2

[5] = 62 g ai/ha, Preemergence, scale 0 to 100
[6] = 125 g ai/ha, preemergence, scale 0 (no effect) to 100 (complete control)
[7] = Preemergence, 31 g ai/ha, scale 0 to 100 (0 no effect, 100 complete control)
[8] = preemergence, 250 g ai/ha, scale 0 (no effect) to 100 (complete control)
[9] = Postemergence, 500 g ai/ha, 0 is no effect, 100 is complete control
[10] = Preemergence, 125 g ai/ha, 0 no effect, 100 complete control
[11] = 62 g ai/ha, scale 0 to 100 (0 no effect, 100 complete control)
[12] = 250 g ai/ha, scale 0 to 100, 0 no effect, 100 complete control, 13 to 15 days

Cc1cc[n+]([O-])c(S(=O)(=O)Cc2c(C(F)(F)F)nn(C)c2OCC(F)F)c1 [Compound 94]
Blackgrass plant response rating (blackgrass; [5]): 95
Blackgrass plant response rating (blackgrass; [6]): 100
Plant response rating, Blackgrass (blackgrass; [7]): 70
Blackgrass plant response rating (blackgrass; [8]): 100
Velvetleaf plant response rating (velvetleaf [1]; [5]): 40
Velvetleaf plant response rating (velvetleaf [1]; [6]): 100
Plant response rating, Velvetleaf (velvetleaf [1]; [7]): 0
Velvetleaf plant response rating (velvetleaf [1]; [8]): 100
Foxtail, Green plant response rating (green foxtail; [5]): 100
Foxtail, Green plant response rating (green foxtail; [6]): 100
Plant response rating, Foxtail, Green (green foxtail; [7]): 98
Foxtail, Green plant response rating (green foxtail; [8]): 100
Pigweed plant response rating (pigweed; [5]): 90
Pigweed plant response rating (pigweed; [6]): 100
Plant response rating, Pigweed (pigweed; [7]): 60
Pigweed plant response rating (pigweed; [8]): 100
Plant response rating, Barnyardgrass (barnyardgrass [2]; Postemergence, 125 g ai/ha): 60
Barnyardgrass plant response rating (barnyardgrass [2]; [9]): 90
Barnyardgrass plant response rating (barnyardgrass [2]; [10]): 70
Plant response rating, Barnyardgrass (barnyardgrass [2]; Preemergence, 500 g ai/ha): 100
Plant response rating, Crabgrass, Large (crabgrass; Postemergence, 125 g ai/ha): 70
Crabgrass, Large plant response rating (crabgrass; [9]): 90
Crabgrass, Large plant response rating (crabgrass; [10]): 90
Plant response rating, Crabgrass, Large (crabgrass; Preemergence, 500 g ai/ha): 100
Bromegrass, Downy plant response rating (downy brome; [5]): 75
Bromegrass, Downy plant response rating (downy brome; [6]): 80
Plant response rating, Bromegrass, Downy (downy brome; [7]): 10
Bromegrass, Downy plant response rating (downy brome; [8]): 95
Galium plant response rating (catchweed bedstraw; [5]): 100
Galium plant response rating (catchweed bedstraw; [6]): 100
Plant response rating, Galium (catchweed bedstraw; [7]): 95
Galium plant response rating (catchweed bedstraw; [8]): 100
Plant response rating, Ducksalad (duck salad; [11]): 0
Plant response rating, Ducksalad (duck salad; [12]): 75
Plant response rating, Velvetleaf (velvetleaf [3]; Postemergence, 125 g ai/ha, 0 to 100 scale where 0 is no effect and 100 is complete control): 10
Velvetleaf plant response rating (velvetleaf [3]; [9]): 70
Velvetleaf plant response rating (velvetleaf [3]; [10]): 10
Velvetleaf plant response rating (velvetleaf [3]; Preemergence, 500 g ai/ha, 0 no effect, 100 complete control): 100
Cupgrass, Woolly plant response rating (woolly cupgrass; [5]): 90
Cupgrass, Woolly plant response rating (woolly cupgrass; [6]): 100
Plant response rating, Cupgrass, Woolly (woolly cupgrass; [7]): 10
Cupgrass, Woolly plant response rating (woolly cupgrass; [8]): 100
Surinam Grass plant response rating (Surinam grass; [5]): 90
Surinam Grass plant response rating (Surinam grass; [6]): 90
Plant response rating, Surinam Grass (Surinam grass; [7]): 90
Surinam Grass plant response rating (Surinam grass; [8]): 100
Lambsquarters plant response rating (lambsquarters; [5]): 90
Lambsquarters plant response rating (lambsquarters; [6]): 100
Plant response rating, Lambsquarters (lambsquarters; [7]): 90
Lambsquarters plant response rating (lambsquarters; [8]): 100
Plant response rating, Barnyardgrass (barnyardgrass [4]; [11]): 0
Plant response rating, Barnyardgrass (barnyardgrass [4]; [12]): 0
Ragweed plant response rating (common ragweed; [5]): 100
Ragweed plant response rating (common ragweed; [6]): 100
Plant response rating, Ragweed (common ragweed; [7]): 60
Ragweed plant response rating (common ragweed; [8]): 100
Soybean plant response rating (soybean; [5]): 30
Soybean plant response rating (soybean; [6]): 30
Plant response rating, Soybean (soybean; [7]): 0
Soybean plant response rating (soybean; [8]): 80
Plant response rating, Foxtail, Giant (giant foxtail; Postemergence, 125 g ai/ha): 50
Foxtail, Giant plant response rating (giant foxtail; [9]): 80
Foxtail, Giant plant response rating (giant foxtail; [10]): 100
Plant response rating, Foxtail, Giant (giant foxtail; Preemergence, 500 g ai/ha): 100
